What was measured:
Format in all cases: in vivo
[1] = tested on: Thanatephorus cucumeris; assay: Foliar fungal disease test on plants: Thanatephorus cucumeris (Tc); settings: 100 ppm active ingredient foliar spray plus root drench (approx. 40 ppm a.i. in dry soil), one or two days before inoculation
Procedure: (§1) The compounds were tested against a variety of foliar fungal diseases of plants. The technique employed was as follows.
(§2) The plants were grown in John Innes Potting Compost (No.1 or 2) in 4 cm diameter minipots. The test compounds were formulated either by bead milling with aqueous Dispersol T or as a solution in acetone or acetone/ethanol which was diluted to the required concentration immediately before use. For the foliage diseases, the formulations (100 ppm active ingredient except where otherwise indicated) were sprayed onto the foliage and applied to the roots of the plants in the soil. The sprays were applied to maximum retention and the root drenches to a final concentration equivalent to approximately 40 ppm a.i. in dry soil. Tween 20, to give a final concentration of 0.05%, was added when the sprays were applied to cereals.
(§3) For most of the tests the compound was applied to the soil (roots) and to the foliage (by spraying) one or two days before the plant was inoculated with the disease. An exception was the test on Erysiphe graminis in which the plants were inoculated 24 hours before treatment. Foliar pathogens were applied by spray as spore suspensions onto the leaves of test plants. After inoculation, the plants were put into an appropriate environment to allow infection to proceed and then incubated until the disease was ready for assessment. The period between inoculation and assessment varied from four to fourteen days according to the disease and environment.
(§4) The disease control vas recorded by the following grading:
(§5) 3=trace-5% of disease on untreated plants
(§6) 2=6-25% of disease on untreated plants
(§7) 1=26-59% of disease on untreated plants
(§8) 0=60-100% of disease on untreated plants
Tc Thanatephorus cucumeris

[2] = tested on: Plasmopara viticola; assay: Foliar fungal disease test on plants: Plasmopara viticola (Pv); settings: 100 ppm active ingredient foliar spray plus root drench (approx. 40 ppm a.i. in dry soil), one or two days before inoculation
Summary of the method: (§9)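 Potted plants treated by foliar spray to maximum retention (100 ppm a.i. unless stated) plus root drench (~40 ppm a.i. in dry soil), with 0.05% Tween 20 on cereals, one or two days before spore-suspension inoculation.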

[3] = tested on: Pyricularia oryzae; settings: 100 ppm active ingredient foliar spray plus root drench (approx. 40 ppm a.i. in dry soil), one or two days before inoculation
[4] = tested on: Phytophthora infestans lycopersici; settings: 100 ppm active ingredient foliar spray plus root drench (approx. 40 ppm a.i. in dry soil), one or two days before inoculation
[5] = tested on: Venturia inaequalis; assay: Foliar fungal disease test on plants: Venturia inaequalis (Vi); settings: 100 ppm active ingredient foliar spray plus root drench (approx. 40 ppm a.i. in dry soil), one or two days before inoculation
Summary of the method: as §9

[6] = tested on: Septoria nodorum; assay: Foliar fungal disease test on plants: Septoria nodorum (Sn); settings: 100 ppm active ingredient foliar spray plus root drench (approx. 40 ppm a.i. in dry soil), one or two days before inoculation
Procedure: as §1, §2, §3, §4, §5, §6, §7, §8

[7] = tested on: Puccinia recondita; assay: Foliar fungal disease test on plants: Puccinia recondita (Pr); settings: 100 ppm active ingredient foliar spray plus root drench (approx. 40 ppm a.i. in dry soil), one or two days before inoculation
Summary of the method: as §9

[8] = tested on: Erysiphe graminis tritici; assay: Foliar fungal disease test on plants: Erysiphe graminis tritici (Egt); settings: 100 ppm active ingredient foliar spray plus root drench (approx. 40 ppm a.i. in dry soil); plants inoculated 24 hours before treatment
Procedure: as §1, §2, §3, §4, §5, §6, §7, §8
Egt Erysiphe graminis tritici

[9] = tested on: Erysiphe graminis hordei; assay: Foliar fungal disease test on plants: Erysiphe graminis hordei (Egh); settings: 100 ppm active ingredient foliar spray plus root drench (approx. 40 ppm a.i. in dry soil); plants inoculated 24 hours before treatment

Row | SMILES | disease control grading, Tc (Thanatephorus cucumeris) [1] | disease control grading, Pv (Plasmopara viticola) [2] | disease control grading, Po (Pyricularia oryzae) [3] | disease control grading, Pil (Phytophthora infestans lycopersici) [4] | disease control grading, Vi (Venturia inaegualis) [5] | disease control grading, Sn (Septoria nodorum) [6] | disease control grading, Pr (Puccinia recondita) [7] | disease control grading, Egt (Erysiphe graminis tritici) [8] | disease control grading, Egh (Erysiphe graminis hordei) [9]
1 | CO/C=C(/C(=O)OC)c1ccccc1Oc1cc(O/N=C(/N)c2cccc(C(F)(F)F)c2)ncn1 [406 of Table I] | 0 (0=60-100% of disease on untreated plants) | 4 (4=no disease) | 0 (0=60-100% of disease on untreated plants) | 0 (0=60-100% of disease on untreated plants) | 1 (1=26-59% of disease on untreated plants) | 0 (0=60-100% of disease on untreated plants) | 0 (0=60-100% of disease on untreated plants) | 1 (1=26-59% of disease on untreated plants) | –
2 | CO/C=C(/C(=O)OC)c1ccccc1Oc1cc(OCc2c(F)cccc2Cl)ncn1 [386 of Table I] | 4 (4=no disease) | 4 (4=no disease) | 4 (4=no disease) | 4 (4=no disease) | 4 (4=no disease) | 4 (4=no disease) | 4 (4=no disease) | – | 4 (4=no disease)
3 | CO/C=C(/C(=O)OC)c1ccccc1Oc1cc(OCc2ccco2)ncn1 [320 of Table I] | 4 (4=no disease) | 4 (4=no disease) | 3 (3=trace-5% of disease on untreated plants) | 4 (4=no disease) | 4 (4=no disease) | 4 (4=no disease) | 4 (4=no disease) | 4 (4=no disease) | –
4 | CO/C=C(/C(=O)OC)c1ccccc1Oc1cc(OCCCc2ccccc2Cl)ncn1 [384 of Table I] | 4 (4=no disease) | 4 (4=no disease) | – | 4 (4=no disease) | 4 (4=no disease) | 4 (4=no disease) | 4 (4=no disease) | – | 4 (4=no disease)
5 | CO/C=C(/C(=O)OC)c1ccccc1Oc1cc(OCC#Cc2ccccc2)ncn1 [387 of Table I] | 4 (4=no disease) | 4 (4=no disease) | 4 (4=no disease) | 4 (4=no disease) | 4 (4=no disease) | 4 (4=no disease) | 4 (4=no disease) | – | 4 (4=no disease)
6 | CO/C=C(/C(=O)OC)c1ccccc1Oc1cc(OCCOc2ccc(C#N)cc2)ncn1 [390 of Table I] | 1 (1=26-59% of disease on untreated plants) | 4 (4=no disease) | 4 (4=no disease) | 0 (0=60-100% of disease on untreated plants) | 4 (4=no disease) | 3 (3=trace-5% of disease on untreated plants) | 4 (4=no disease) | – | 3 (3=trace-5% of disease on untreated plants)
7 | CO/C=C(/C(=O)OC)c1ccccc1Oc1cc(OCc2ccccc2C(F)(F)F)ncn1 [385 of Table I] | 4 (4=no disease) | 4 (4=no disease) | – | 4 (4=no disease) | 4 (4=no disease) | 4 (4=no disease) | 4 (4=no disease) | – | 4 (4=no disease)

From patent US6777412B2 (priority 1990, dated 2004)
